Among the data in patent US20230025327A1, “CONJUGATES OF TUBULYSIN DERIVATIVES AND CELL BINDING MOLECULES AND METHODS OF MAKING” (Hangzhou DAC Biotech Co., Ltd., priority 2019, published 2023) are IC50 values, retold here.

The assay deals with NCI-N87, a human gastric carcinoma cell line. The settings on record: read-out: IC50 of NCI-N87 cells, 120 hours incubation, MTT. The procedure:
The inhibition % was calculated according to the following equation: inhibition %=[1-(assay-blank)/(control-blank)]×100.

pIC50: −log10 of the molar value.

In general, pIC50 refers to the IC50 on a negative log10 scale, so that one unit is a factor of ten. T-DM1: the negative logarithm of the IC50 (pIC50) is 9.49.
